Measured values published in patent publication US20160115540A1, “PRODRUGS AND DRUGS” (Biogen MA Inc., priority 2013, published 2016).
Where a name gives a salt, the structure may show the parent alone.

Tested on: spinal cord
Test: Transcriptional profiling, multi-dosing regimen, naïve mice: spinal cord
Format: in vivo
Details: for FC, Depp (1433836_PM_a_at) / FC, Depp (1433837_PM_at): SpinalCord, multi-dosing; for Number of differentially expressed genes identified: Spinal Cord: Table 13: Naïve, Single Dose (so in the source), 12 h after last dosing
Procedure: In vivo, DMF is rapidly metabolized to monomethyl fumarate (MMF). […] Animals were exposed to CO2 and whole blood collected via cardiac puncture. Two 100 μl aliquots of whole blood were collected in 1.5 mL microcentrifuge tubes and snap frozen in liquid nitrogen. Peripheral (liver, spleen, kidney and jejunum) and CNS brain (cerebellum, hippocampus, striatum and cortex) tissues were harvested and snap frozen in liquid nitrogen, with special care taken to collect tissues of similar size and from the same location. All samples were stored at -80° C. until RNA extraction was conducted. For RNA preparation, frozen tissues were placed in 2 mL RNAse-free 96-well blocks with 1.5 mL QIAzol Lysis Reagent (QIAgen) and a 3.2 mm stainless steel bead (BioSpec Products, Bartlesville, Okla.). Tissues were disrupted for four cycles of 45 seconds in a Mini-Beadbeater (Biospec Products). RNA was extracted in chloroform and the aqueous phase was mixed with an equal volume of 70% ethanol. Extracted RNA was applied to RNeasy 96 plates and purified by the spin method according to the manufacturer's protocol (RNeasy 96 Universal Tissue Protocol, QIAgen, Hilden Germany). […] Two micrograms of biotin labeled […] probe were hybridized to Affymetrix GeneChip Affymetrix HT_MG-430_PM plate arrays with modified conditions as described in […] et al. Washing and staining of the hybridized arrays were completed as described in the GeneChip Expression analysis technical manual for HT plate arrays using the Genechip® Array Station (Affymetrix, Santa Clara, Calif.) with modifications as described in […] et al. The processed GeneChip® plate arrays were scanned using GeneTitan scanner (Affymetrix, Santa Clara, Calif.). Affymetrix scans were subject to quality control (QC) measures. These tests included a visual inspection of the distribution of raw signal intensities and an assessment of RNA degradation, relative log expression (RLE), and normalized unsealed standard error (NUSE). All sample scans that passed these QC metrics were included in the analysis. All CEL files were subjected to GC-content-based Robust Multi-array Average (GCRMA) normalization (version 2.20.0) (Irizarry R A, et al. Nucleic Acids Res 2003; 31:e15; Li C, et al. […] Stat Appl Genet Mol Biol 2004; 3:Article3). […] Springer Science+Business Media 2005). Changes in gene expression were studied by applying a linear modeling approach to fit gene expression levels according to the defined groups of samples (e.g. DMF-, MMF-, and Vehicle-treated animals) and Bayesian posterior error analysis as implemented by Smyth (Smyth G K. Stat Appl Genet Mol Biol 2004; 3:Article3). The comparisons considered included: DMF-vs-MMF, DMF-vs-Vehicle, and MMF-vs-Vehicle. […] Very few DEGs are observed in blood and tissues derived from the central nervous system (brain, cerebellum, cortex, striatum, and spinal cord).

[1] = SPINAL CORD, 100DMF-vs-100MMF, naïve multidose

Structure (SMILES)	FC 8430408G22Rik (1433836_PM_a_at) [1]	FC 8430408G22Rik (1433837_PM_at) [1]	FC Mtmr2 (1425459_PM_at) [1]	FC Tle4 (1430384_PM_at) [1]	FC 8430408G22Rik (1433837_PM_at) (SPINAL CORD, 100DMF-vs-Veh, naïve multidose)	FC, Depp (1433836_PM_a_at) (DMF-vs-MMF)	FC, Depp (1433837_PM_at) (DMF-vs-MMF)	FC, Depp (1433836_PM_a_at) (DMF-vs-Vehicle)	FC, Depp (1433837_PM_at) (DMF-vs-Vehicle)	Number of differentially expressed genes identified: Spinal Cord (100 mpk DMF-vs-90 mpk MMF)	Number of differentially expressed genes identified: Spinal Cord (100 mpk DMF-vs-Vehicle)	DEPP gene induction (mRNA) (spinal cord, multi-dosing regimen, naïve mice)	FC, Depp (1433836_PM_a_at) (MMF-vs-Vehicle)	FC, Depp (1433837_PM_at) (MMF-vs-Vehicle)	Number of differentially expressed genes identified: Spinal Cord (90 mpk MMF-vs-Vehicle)
COC(=O)/C=C/C(=O)OC [DMF, dimethyl fumarate]	1.92	1.65	1.57	−1.55	1.73	1.92	1.65	1.66	1.73	4	1	robustly induced	–	–	–
COC(=O)/C=C/C(=O)O [MMF, monomethyl fumarate]	–	–	–	–	–	–	–	–	–	–	–	–	−1.16	1.05	0
